Source: PubChem BioAssay (NCI)
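Grown in 96-well plates, cells were treated for 48 hours with each compound at five concentrations. Insufficient inhibition: endpoint recorded as highest concentration tested. The concentration for full growth arrest is given as TGI.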

Key:
Experiment in all cases: NCI-60 cell line screen, 48 h
[1] = system: KM12 colon
[2] = system: OVCAR-5 ovarian
[3] = system: SNB-75 CNS
[4] = system: UACC-62 melanoma
[5] = system: SK-MEL-2 melanoma
[6] = system: HCT-116 colon
[7] = system: SW-620 colon
[8] = system: HS 578T breast
[9] = system: DU-145 prostate
[10] = system: A549 NSCLC

SMILES | TGI [1] | TGI [2] | TGI [3] | TGI [4] | TGI [5] | TGI [6] | TGI [7] | TGI [8] | TGI [9] | TGI [10]
CC[C@H](C)[C@H]1NC(=O)[C@@H](NC(=O)[C@@H](CC(C)C)N(C)C(=O)C2CCCN2C(=O)[C@H](C)O)[C@@H](C)OC(=O)[C@H](Cc2ccccc2)N(C)C(=O)[C@@H]2CCCN2C(=O)[C@H](CC(C)C)NC(=O)[C@@H](C)C(=O)[C@H](C(C)C)OC(=O)C[C@@H]1O (stereo partly drawn) | < 0.00625 µM | 0.075 µM | < 0.00625 µM | < 0.00625 µM | 0.0954 µM | 0.00642 µM | > 62.5 µM | 0.0114 µM |  | 
Cc1cn2c(/C=C3/C(=O)Nc4ccccc43)c(C)nc2s1 | 29.7 µM | > 100 µM | > 100 µM | > 100 µM | 5.57 µM | 15.5 µM | 77.3 µM | 7 µM | > 100 µM | 50.7 µM
Cc1ccc(-n2cc(-c3ccc(Cl)cc3)c3c2N=CN2NC(c4cccs4)=NC32)cc1 (stereo not drawn) |  | 51 µM | 23.4 µM | 68.6 µM | 33 µM | 22 µM | > 100 µM | 6.52 µM | > 100 µM | > 100 µM
CC(C)(C)N=c1n(C(C)(C)C)oc(=O)n1-c1ccccc1 | > 50 µM | > 50 µM | > 50 µM | > 50 µM | > 50 µM | > 50 µM | > 50 µM | > 50 µM | > 50 µM | > 50 µM
CC#Cc1c(C#CC)c(OC)c2c(c1OC)C(=O)c1ccccc1C2=O | > 100 µM | > 100 µM |  | > 100 µM | > 100 µM | 72.6 µM | > 100 µM |  |  | > 100 µM
CC1=C(C(=O)NC(C)(C)C)CC(C(=O)NC(C)(C)C)C(C)N1 (stereo not drawn) | > 100 µM | > 100 µM | > 100 µM | > 100 µM | > 100 µM | > 100 µM | > 100 µM | > 100 µM | > 100 µM | > 100 µM
O=C(O)CCc1nc2cc3ccccc3cc2[nH]c1=O | > 100 µM | > 100 µM | > 100 µM | > 100 µM | > 100 µM | > 100 µM | > 100 µM |  | > 100 µM | > 100 µM
COc1ccccc1Cn1[nH]c(=O)c2cc([N+](=O)[O-])ccc21 | > 100 µM | > 100 µM | > 100 µM | > 100 µM | > 100 µM | > 100 µM | > 100 µM | > 100 µM | > 100 µM | > 100 µM
CN(C)C(=O)Oc1ccc(C(=S)Nc2ccccc2)cc1Br | 51.6 µM | > 100 µM |  | 74.4 µM | 71.5 µM | > 100 µM | > 100 µM | > 100 µM | > 100 µM | > 100 µM
CCOC(=O)c1c(NC(=O)c2ccc(Br)cc2)sc2c1CCCC2 | > 100 µM | > 100 µM |  | > 100 µM | > 100 µM | > 100 µM | > 100 µM | > 100 µM | > 100 µM | > 100 µM
CC(=O)C1=NN(c2ccccc2)C2(S1)SC(c1ccccc1)(c1ccccc1)c1ccccc12 (stereo not drawn) | > 100 µM |  | 71.1 µM | 48.7 µM | 78.7 µM | > 100 µM | > 100 µM |  |  | > 100 µM
